Laboratory results taken from patent US11168086B2, “Methods of synthesizing pyrazine compounds” (Hoffmann-La Roche Inc., priority 2015, dated 2021).

System: HBV
Test: HBV inhibition assay: anti-HBV activity in vitro in HepG2.2.15 cells (extracellular HBV DNA by qPCR)
Type: cell-based
Conditions: Hepatitis B virus, 120 h, five days after compound treatment, extracellular HBV DNA in culture supernatant by qPCR, concentration at which HBV replication is inhibited by 50%
Outline: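 HepG2.2.15 cells (stably carrying HBV genome) treated with half-log serially diluted compounds at 0.5% DMSO final for five days. Extracellular HBV DNA in supernatant quantified by qPCR after Proteinase K digestion; EC50 is concentration giving 50% inhibition of replication.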

Row | Structure (SMILES) | EC50
1 | C[C@H]1Cn2ncc(N3CC(c4cnco4)CC3=O)c2CN1C(=O)Nc1cc(F)c(F)c(F)c1 (stereo partly drawn) [Example 247, (6S)-6-methyl-3-(4-oxazol-5-yl-2-oxo-pyrrolidin-1-yl)-N-(3,4,5-trifluorophenyl)-6,7-dihydro-4H-pyrazolo[1,5-a]pyrazine-5-carboxamide] | 14 nM
2 | CC1Cn2ncc(-c3ccc(F)cn3)c2CN1C(=O)Nc1ccc(F)c(C2CC2)c1 (stereo not drawn) [Example 157, N-(3-cyclopropyl-4-fluoro-phenyl)-3-(5-fluoro-2-pyridyl)-6-methyl-6,7-dihydro-4H-pyrazolo[1,5-a]pyrazine-5-carboxamide] | 83 nM
3 | C[C@H]1Cn2ncc(-c3ncc(F)cn3)c2CN1C(=O)Nc1cc(F)c(F)c(F)c1 [Example 341, (6S)-3-(5-fluoropyrimidin-2-yl)-6-methyl-N-(3,4,5-trifluorophenyl)-6,7-dihydro-4H-pyrazolo[1,5-a]pyrazine-5-carboxamide] | 40 nM
4 | C[C@H]1Cn2ncc(N3CC(c4cccnc4)CC3=O)c2CN1C(=O)Nc1cc(F)c(F)c(F)c1 (stereo partly drawn) [Example 351, (6S)-6-methyl-3-[2-oxo-4-(3-pyridyl)pyrrolidin-1-yl]-N-(3,4,5-trifluorophenyl)-6,7-dihydro-4H-pyrazolo[1,5-a]pyrazine-5-carboxamide] | 12 nM
5 | C[C@H]1Cn2ncc(N3CCCC3=O)c2CN1C(=O)Nc1cc(F)c(F)c(F)c1 [Example 356, (6S)-6-methyl-3-(2-oxopyrrolidin-1-yl)-N-(3,4,5-trifluorophenyl)-6,7-dihydro-4H-pyrazolo[1,5-a]pyrazine-5-carboxamide] | 50 nM
6 | CC1Cn2ncc(-c3ccc(F)cc3)c2CN1C(=O)Nc1cc(F)c(F)c(F)c1 (stereo not drawn) [Example 53, 3-(4-fluorophenyl)-6-methyl-N-(3,4,5-trifluorophenyl)-6,7-dihydro-4H-pyrazolo[1,5-a]pyrazine-5-carboxamide] | 34 nM
7 | CC1Cn2ncc(N3CCOC3=O)c2CN1C(=O)Nc1ccc(F)c(Cl)c1 (stereo not drawn) [Example 237, N-(3-chloro-4-fluoro-phenyl)-6-methyl-3-(2-oxooxazolidin-3-yl)-6,7-dihydro-4H-pyrazolo[1,5-a]pyrazine-5-carboxamide] | 74 nM
8 | C[C@H]1Cn2ncc(N3CC(c4ccc(Cl)nc4)OC3=O)c2CN1C(=O)Nc1cc(F)c(F)c(F)c1 (stereo partly drawn) [Example 409, (6S)-3-[5-(6-chloro-3-pyridyl)-2-oxo-oxazolidin-3-yl]-6-methyl-N-(3,4,5-trifluorophenyl)-6,7-dihydro-4H-pyrazolo[1,5-a]pyrazine-5-carboxamide] | 16 nM
9 | C[C@H]1Cn2ncc(N3CC(C(=O)N4CCCC4)CC3=O)c2CN1C(=O)Nc1cc(F)c(F)c(F)c1 (stereo partly drawn) [Example 391, (6S)-6-methyl-3-[2-oxo-4-(pyrrolidine-1-carbonyl)pyrrolidin-1-yl]-N-(3,4,5-trifluorophenyl)-6,7-dihydro-4H-pyrazolo[1,5-a]pyrazine-5-carboxamide] | 74 nM
